Data as given in US8329675B2, “Inhibitors of fatty acid amide hydrolase” (Infinity Pharmaceuticals, Inc., priority 2006, dated 2012).

The compounds below were run against T1, human FAAH (Homo sapiens, UniProt O00519) (assay: Human FAAH biochemical inhibition assay (AMC arachidonoyl amide fluorescence)). Details: Table 2, human FAAH (no asterisk); read-out: Activity (Ki).
T1 construct: host or cells: COS-7 cells, transient transfection; 13,000 g membrane fraction solubilised in 1% Triton X-100
T1 sequence (O00519 1-579): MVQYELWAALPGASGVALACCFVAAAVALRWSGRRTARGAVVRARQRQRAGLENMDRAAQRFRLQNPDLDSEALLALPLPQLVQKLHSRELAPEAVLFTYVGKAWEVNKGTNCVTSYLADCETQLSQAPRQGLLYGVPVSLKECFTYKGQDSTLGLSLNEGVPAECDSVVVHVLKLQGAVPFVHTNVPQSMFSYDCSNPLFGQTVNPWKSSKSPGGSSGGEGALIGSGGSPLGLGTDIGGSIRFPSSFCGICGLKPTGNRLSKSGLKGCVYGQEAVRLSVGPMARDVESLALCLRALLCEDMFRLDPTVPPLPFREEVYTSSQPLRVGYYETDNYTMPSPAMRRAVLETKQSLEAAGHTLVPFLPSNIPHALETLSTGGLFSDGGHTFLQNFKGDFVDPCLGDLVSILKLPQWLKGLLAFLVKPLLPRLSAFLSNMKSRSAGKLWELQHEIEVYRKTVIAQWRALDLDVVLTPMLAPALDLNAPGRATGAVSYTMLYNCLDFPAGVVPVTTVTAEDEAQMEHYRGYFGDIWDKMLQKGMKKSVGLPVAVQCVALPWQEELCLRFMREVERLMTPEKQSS
Procedure, shortened: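 Solubilized membrane fraction from COS-7 cells transfected with human FAAH, used at a final 0.05 mg/ml in 50 mM Hepes pH 7.5, 1 mM EDTA, 0.2% Triton X-100. Inhibitor pre-incubated 30 min at room temperature; 20 uM final AMC arachidonoyl amide added, reaction run 4 h at room temperature, fluorescence read.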

Row | Ki | SMILES
1 | < 10 nM | Cc1ccc(Oc2ccc(B(O)O)c(F)c2)cc1Cl [II-211]
2 | < 10 nM | OB(O)c1ccc(Oc2cccc(OC(F)(F)F)c2)cc1F [II-212]
3 | < 10 nM | Cc1cc(Oc2ccc(B(O)O)c(F)c2)ccc1Cl [II-213]
4 | > 1000 nM | CN(C)CCN(Cc1ccccc1)C(=O)C(Oc1ccc(B(O)O)cc1)c1ccccc1 (centres unmarked) [II-214]
5 | > 1000 nM | CN(C)CCNC(=O)C(Oc1ccc(B(O)O)cc1)c1ccccc1 (centres unmarked) [II-215]
6 | 10 to 1000 nM | O=C(C(Oc1ccc(B(O)O)cc1)c1ccccc1)N1CCCCC1 (centres unmarked) [II-216]
7 | 10 to 1000 nM | O=C(NCc1ccccc1)C(Oc1ccc(B(O)O)cc1)c1ccccc1 (centres unmarked) [II-217]
8 | 10 to 1000 nM | CCCCNC(=O)C(Oc1ccc(B(O)O)cc1)c1ccccc1 (centres unmarked) [II-218]
9 | 10 to 1000 nM | CN(C)C(=O)C(Oc1ccc(B(O)O)cc1)c1ccccc1 (centres unmarked) [II-219]
10 | < 10 nM | CCCCNC(=O)c1cccc(Oc2ccc(B(O)O)cc2)c1 [II-220]
11 | < 10 nM | O=C(NCc1ccccc1)c1cccc(Oc2ccc(B(O)O)cc2)c1 [II-221]
12 | > 1000 nM | O=S(=O)(Cc1ccccc1)c1ccc(B(O)O)cc1 [II-222]
13 | 10 to 1000 nM | O=C(c1ccc(B(O)O)cc1)N(Cc1ccccc1)Cc1ccccc1 [II-223]
14 | 10 to 100 nM | COC(=O)C(Oc1ccc(B(O)O)cc1)c1ccccc1 (centres unmarked) [II-224]
15 | < 10 nM | CC(C)NC(=O)c1cccc(Oc2ccc(B(O)O)cc2)c1 [II-225]
16 | 10 to 100 nM | O=C(c1cccc(Oc2ccc(B(O)O)cc2)c1)N1CCCC1 [II-226]
17 | 10 to 100 nM | CN(C)C(=O)c1ccc(Oc2ccc(B(O)O)cc2)cc1 [II-227]
18 | 10 to 100 nM | CN(C)C(=O)c1cccc(Oc2ccc(B(O)O)cc2)c1 [II-228]
19 | < 10 nM | CN(CCc1ccccc1)C(=O)c1ccc(B(O)O)cc1 [II-229]
20 | 10 to 100 nM | CN(C(=O)c1ccc(B(O)O)cc1)c1ccccc1 [II-230]
21 | < 10 nM | OB(O)c1ccc(CSc2ccccc2)cc1 [II-231]
22 | 10 to 1000 nM | [O-][S+](Cc1ccc(B(O)O)cc1)c1ccccc1 (centres unmarked) [II-232]
23 | 10 to 100 nM | [O-][S+](Cc1ccccc1)c1ccc(B(O)O)cc1 (centres unmarked) [II-233]
24 | < 10 nM | OB(O)c1ccc(SCc2ccccc2)cc1 [II-234]
25 | 10 to 1000 nM | CN(C(=O)c1ccccc1)c1ccc(B(O)O)cc1 [II-235]

Row | Ki | SMILES
26 | < 10 nM | CC(C)OC(=O)c1cccc(Oc2ccc(B(O)O)cc2)c1 [II-236]
27 | < 10 nM | OB(O)c1ccc(OC2CCCCC2)cc1 [II-237]
28 | 10 to 100 nM | CC(Oc1ccc(B(O)O)cc1)c1ccccc1 (centres unmarked) [II-238]
29 | 10 to 100 nM | COc1c(C)cc(Oc2ccc(B(O)O)cc2)cc1C [II-239]
30 | 10 to 100 nM | COc1cc(Oc2ccc(B(O)O)cc2)cc(OC)c1OC [II-240]
31 | > 1000 nM | OB(O)c1ccc(CBr)cc1 [II-241]
32 | < 10 nM | OB(O)c1ccc(COc2ccccc2)cc1 [II-242]
33 | < 10 nM | CCCCOc1cccc(Oc2ccc(B(O)O)cc2)c1 [II-243]
34 | < 10 nM | OB(O)c1ccc(Oc2cccc(OC(F)(F)F)c2)cc1 [II-244]
35 | < 10 nM | CC(C)Oc1cccc(Oc2ccc(B(O)O)cc2)c1 [II-245]
36 | < 10 nM | CC(C)c1cccc(Oc2ccc(B(O)O)cc2)c1 [II-246]
37 | 10 to 100 nM | Cc1cc(COC(=O)c2ccc(B(O)O)cc2)ccc1F [II-247]
38 | 10 to 100 nM | O=C(Cc1ccccc1)Nc1ccc(B(O)O)cc1 [II-248]
39 | 10 to 1000 nM | O=C(Nc1ccc(B(O)O)cc1)c1ccccc1 [II-249]
40 | < 10 nM | Cc1cc(OCc2ccc(B(O)O)cc2)ccc1Cl [II-250]
41 | < 10 nM | CCOc1ccc(Oc2ccc(B(O)O)cc2)cc1F [II-251]
42 | < 10 nM | COc1ccc(Oc2ccc(B(O)O)cc2)cc1Cl [II-252]
43 | < 10 nM | Cc1cc(Oc2ccc(B(O)O)cc2)ccc1F [II-253]
44 | < 10 nM | Cc1cc(Oc2ccc(B(O)O)cc2)ccc1Cl [II-254]
45 | < 10 nM | COc1ccc(Oc2ccc(B(O)O)cc2)cc1F [II-255]
46 | < 10 nM | OB(O)c1ccc(Oc2ccc(C(F)(F)F)c(Cl)c2)cc1 [II-256]
47 | < 10 nM | OB(O)c1ccc(Oc2ccc(Cl)c(C(F)(F)F)c2)cc1 [II-257]
48 | 10 to 100 nM | OB(O)c1ccc(Oc2cc(Cl)cc(Cl)c2)cc1 [II-258]
49 | < 10 nM | OB(O)c1ccc(Oc2ccc(Cl)c(Cl)c2)cc1 [II-259]
50 | < 10 nM | OB(O)c1ccc(Oc2cc(F)cc(F)c2)cc1 [II-260]

Row | Ki | SMILES
51 | < 10 nM | OB(O)c1ccc(Oc2ccc(F)c(F)c2)cc1 [II-261]
52 | < 10 nM | COc1ccc(Oc2ccc(B(O)O)cc2)cc1OC [II-262]
53 | < 10 nM | OB(O)c1ccc(Oc2cc(F)c(F)c(F)c2)cc1 [II-263]
54 | < 10 nM | COc1ccc(Oc2ccc(B3OC(C)(C)C(C)(C)O3)cc2)cc1OC [II-264]
55 | < 10 nM | Cc1cc(COc2ccc(B(O)O)cc2F)ccc1F [II-265]
56 | 10 to 100 nM | Cc1ccc(F)c(COc2ccc(B(O)O)cc2)c1Cl [II-266]
57 | 10 to 100 nM | Cc1cc(COc2ccc(B(O)O)cc2)ccc1F [II-267]
58 | 10 to 100 nM | Cc1cccc(COc2ccc(B(O)O)cc2)c1F [II-268]
59 | < 10 nM | OB(O)c1ccc(OCc2ccc(Cl)cc2)cc1 [II-269]
60 | 10 to 100 nM | Cc1cccc(COc2ccc(B(O)O)cc2)c1 [II-270]
61 | < 10 nM | CCCCOc1ccc(Oc2ccc(B(O)O)cc2)cc1F [II-271]
62 | < 10 nM | Cc1ccc(Oc2ccc(B(O)O)cc2)cc1F [II-272]
63 | < 10 nM | CCCOc1ccc(Oc2ccc(B(O)O)cc2)cc1F [II-273]
64 | < 10 nM | OB(O)c1ccc(Oc2ccc3c(c2)OCO3)cc1 [II-274]
65 | < 10 nM | Cc1ccc(Oc2ccc(B(O)O)cc2)cc1[N+](=O)[O-] [II-275]
66 | < 10 nM | Cc1ccc(Oc2ccc(B(O)O)cc2)cc1Cl [II-276]
67 | < 10 nM | Cc1ccc(Oc2ccc(B(O)O)cc2)cc1C [II-277]
68 | < 10 nM | COc1ccc(Oc2ccc(B(O)O)cc2)cc1 [II-278]
69 | < 10 nM | COc1cccc(Oc2ccc(B(O)O)cc2)c1 [II-279]
70 | < 10 nM | Cc1ccc(Oc2ccc(B(O)O)cc2)cc1 [II-280]
71 | < 10 nM | Cc1cccc(Oc2ccc(B(O)O)cc2)c1 [II-281]
72 | < 10 nM | COc1cc(B(O)O)ccc1Oc1cccc(F)c1 [II-282]
73 | 10 to 100 nM | Cc1cc(B(O)O)cc(C)c1Oc1cccc(F)c1 [II-283]
74 | < 10 nM | COC(=O)c1ccc(Oc2ccc(B(O)O)cc2)cc1 [II-284]
75 | < 10 nM | COC(=O)c1cccc(Oc2ccc(B(O)O)cc2)c1 [II-285]

Row | Ki | SMILES
76 | 10 to 100 nM | Nc1ccc(Oc2ccc(B(O)O)cc2)cc1 [II-286]
77 | 10 to 100 nM | Nc1cccc(Oc2ccc(B(O)O)cc2)c1 [II-287]
78 | 10 to 100 nM | CC(C)(C)OC(=O)Nc1ccc(Oc2ccc(B(O)O)cc2)cc1 [II-288]
79 | 10 to 100 nM | CC(C)(C)OC(=O)Nc1cccc(Oc2ccc(B(O)O)cc2)c1 [II-289]
80 | < 10 nM | OB(O)c1ccc(Oc2ccc(F)cc2)cc1 [II-290]
81 | < 10 nM | OB(O)c1ccc(Oc2cccc(F)c2)cc1 [II-291]
82 | 10 to 1000 nM | OB(O)c1ccc(Oc2ccncc2)cc1 [II-292]
83 | < 10 nM | OB(O)c1ccc(Oc2cccnc2)cc1 [II-293]
84 | < 10 nM | CC(=O)c1ccc(-c2ccc(B(O)O)cc2)cc1 [II-295]
85 | 10 to 1000 nM | CC(C)(C)c1ccc(-c2ccc(B(O)O)cc2)cc1 [II-296]
86 | 10 to 100 nM | CCCc1ccc(-c2ccc(B(O)O)cc2)cc1 [II-297]
87 | 10 to 100 nM | O=C(c1ccccc1)c1ccc(-c2ccc(B(O)O)cc2)cc1 [II-298]
88 | 10 to 100 nM | CC(=O)Oc1ccc(-c2ccc(B(O)O)cc2)cc1 [II-299]
89 | 10 to 100 nM | COc1ccc(-c2ccc(B(O)O)cc2)cc1 [II-300]
90 | > 1000 nM | OB(O)c1cnn(Cc2ccccc2)c1 [II-302]
91 | > 1000 nM | NC(=O)c1cccc(-c2cccc(B(O)O)c2)c1 [II-303]
92 | > 1000 nM | NC(=O)c1ccc(-c2cccc(B(O)O)c2)cc1 [II-304]
93 | < 10 nM | OB(O)c1ccc(-c2ccccc2F)cc1F [II-305]
94 | < 10 nM | OB(O)c1ccc(-c2ccc(F)cc2)cc1F [II-306]
95 | 10 to 100 nM | OB(O)c1ccc(OCc2ccccc2)c(Cl)c1 [II-313]
96 | 10 to 100 nM | OB(O)c1ccc(OCc2ccccc2)cc1 [II-314]
97 | 10 to 100 nM | OB(O)c1cccc(OCc2ccccc2)c1 [II-316]
98 | < 10 nM | OB(O)c1ccc(Oc2ccccc2)cc1 [II-317]
